According to patent publication US20150297761A1, “PEPTIDIC STRUCTURES INCORPORATING AN AMINO ACID METAL COMPLEX AND APPLICATIONS IN MAGNETIC RESONANCE IMAGING” (THE GENERAL HOSPITAL CORPORATION, priority 2012, published 2015):
Values belong to the molecule of their own block, whether it stands above or below them.

Columns and labels:
HSA = HSA (Homo sapiens, UniProt P02768); experiment: HSA binding by ultrafiltration and ICP-MS (Example 3); type: in vitro ADME; conditions: 0.1 mM compound, 4.5% (w/v) HSA, 37° C.
Experimental: In order to measure HSA binding of the complexes, a 0.1 mM solution (determined by ICP-MS) of the corresponding Gd complex in 4.5% w/v HSA was prepared and pipetted into a Ultrafree-MC Microcentrifuge Filter (NMWL 5,000 Da, PLCC, Millipore). The mixture is incubated at 37° C. for 10 minutes and subsequently centrifuged at 12,000 rpm for 15 minutes. Binding is determined by measurement of Gd content in the filtrate by ICP-MS.

[1] = Relaxivity in the absence and presence of HSA (Example 3); type: physicochemical
Experimental: ^1H and ^13C NMR spectra were recorded on a Varian 500 NMR system equipped with a 5 mm broadband probe. Longitudinal relaxation times, T1, were measured by using the inversion recovery method on Bruker Minispecs. mq20 (20 MHz) and mq60 (60 MHz). Purification via HPLC of intermediates toward Fmoc-DOTAla was performed using method A: Injection of crude mixture onto preparative HPLC on a Rainin, Dynamax (column: 250 mm Kromasil C18) by using A: 0.1% TFA in water, B: 0.1% TFA in MeCN, flow-rate 15 mL/min, 1 over 23 minutes. HPLC purity analysis (both UV and MS detection) was carried out on an Agilent 1100 system (column: Phenomenex Luna, C18(2) 100/2 mm) with UV detection at 220, 254 and 280 nm by using a method B: A gradient of A(0.1% formic acid in water) to 95% B(0.1% formic acid in MeCN), flow-rate 0.8 mL/min, 1 over 15 minutes.

[2] = 17O NMR of Gd complexes for determination of τM (Example 6); type: physicochemical; conditions: pH 7.4, 10 mM PBS; for ^310 TM (ns) / ^310kex × 10^6 (s^−1): 310 K
Experimental: ^17O NMR of Gd complexes for Determination of TM. ^17O NMR measurements of solutions were performed at 11.7 T on 350 μL samples contained in 5 mm standard NMR tubes on a Varian spectrometer. Temperature was regulated by air flow controlled by a Varian VT unit. ^17O transverse relaxation times of a >4 mM solution of Gd(3) and Gd(5a) (pH 7.4, 10 mM PBS buffer) were measured using a CPMG sequence. The concentration of the sample was determined by ICP-MS. Reduced relaxation rates, 1/T2r were calculated from the difference of 1/T2 between the sample and the water blank, and then divided by the mole fraction of coordinated water. The temperature dependence of 1/T2r was fit to a 4-parameter model as previously described. The Gd—O hyperfine-coupling constant, A/h, was assumed to be 3.8×10^6 rad/s, the Gd—O distance was assumed to be 3.1 Å.

[3] = Relaxivity of DOTAlaP derivatives (Example 6); type: physicochemical
Experimental: Relaxivity. Longitudinal relaxation times T1, were measured on Bruker Minispecs mq20 (20 MHz) and mq60 (60 MHz) using an inversion recovery method with 10 inversion time values ranging from 0.05×T1 to 5×Ti. Relaxivity was calculated from a linear plot of 3 different concentrations ranging from 0.25 to 1.0 mM versus the corresponding inverse relaxation times. The temperature was adjusted to 37° C.

[4] = Ligand challenge, equilibrium constant Kcomp of [Gd(DTPA)(H2O)]2− vs. L; type: physicochemical; conditions: calculated from literature thermodynamic data
Experimental: As a means of assessing thermodynamic stability relative to other Gd(III)-complexes, [Gd(CyPic3A)(H2O)2]^− was challenged with DTPA in pH 7.4 25 mM Tris buffer. […] From this information it was possible to deduce equilibrium constants (Kcomp) for the competition reaction described in Equation 5,^31 where L=DTPA and L′=challenging chelator.
Equilibration of each solution was monitored by LC-MS. Relative distributions of [Gd(CyPic3A)(H2O)2]^− and CyPic3A were determined by integrating the corresponding absorbance traces at 280 nm. […] Kcomp values determined between [Gd(DTPA)(H2O)]^2− and various ligands were determined from conditional formation constants (Kcond)^4 values taken from the literature.^6-16 Direct comparisons were only made between Kcond values determined under identical conditions.

[5] = Relaxivity before and after disulfide bond reduction with TCEP; type: physicochemical; conditions: for relaxivity after disulfide bond reduction: 20 eq. TCEP 30 minutes, T1 at 37° C., field not stated in the sentence (0.47 and 1.41 T examined); for relaxivity r1, cyclic versus linearized (reduced) multimer: 1.4 T; for relaxivity r1, cyclic versus linearized (reduced) multimer / Relaxivity per Gd, TCEP reduced / Relaxivity per Gd, cyclic: 37° C.; for Relaxivity per Gd, TCEP reduced: after TCEP reduction of the disulfide bond; for Relaxivity per Gd, cyclic: first value column, before reduction
Experimental: Investigation of the effect of tertiary structure on relaxivity, was done by examination of the effect of disulfide bond reduction on T1 at 0.47 and 1.41 T. T1 was measured for each sample at 37° C. and then the samples were incubated with 20 eq. TCEP for 30 minutes at room temperature to reduce the intramolecular disulfide bond and give the linear peptide. Subsequently, the T1 values were remeasured and concentrations re-determined in order to calculate relaxivities. […] Over all, reduction of the disulfide bond has only a slight effect on relaxivity (FIGS. 16-18 and Table 5).
Reduction of disulfide bond for relaxivity measurements. Complex solutions of purified, cyclic Gd complexes (concentrations of 0.1-0.025 mM, 110 μL) in HEPES buffer (50 mM, pH 7.4) were mixed with TCEP solution (20 mM in HEPES, 10 μL) and incubated room temperature. Reduction was checked by LCMS analysis and found to be complete after 30 minutes.
(§1) Measurement of relaxivity. Longitudinal relaxation times T1, were measured on Bruker Minispecs mq20 (0.47 T) and mq60 (1.41 T), a Bruker Bioscan horizontal bore 4.7 T, 9.4 T and 11.7 T Varian NMR spectrometers. T1 was measured by using an inversion recovery method with 10 inversion time values ranging from 0.05×T1 to 5×T1. Relaxivity was calculated from a linear plot of 3 or 4 different concentrations (ranging from 0.01 to 0.5 mM, depending on amount of compound isolated) versus the corresponding inverse relaxation times. All samples were measured at 37° C. using either the internal temperature control of the instrument (0.47, 1.41, 9.4 and 11.7 T) or a warm air blower (4.7 T). MS-325/HSA was prepared in a 4.5% w/v solution of HSA (0.66 mM) in PBS. The MS-325 concentration (in presence of HSA) ranged from 0.05 to 0.15 mM.

[6] = Relaxivity of Gd(DOTAla) metallopeptides and reference agents (T1 inversion recovery, 37° C.); type: physicochemical; conditions: for Relaxivity per Gd, 400 MHz: 400 MHz (9.4 T); for r1 [0.47 T], per molecule / r1 [1.4 T], per molecule: per molecule (in parentheses)
Experimental: Main numbers are given per Gd, numbers in parentheses are per molecule values. All numbers were determined at 37° C. using an inversion recovery sequence at concentrations ranging from 0.05 to 0.6 mM/Gd. Table 4 in Example 2 further expands the data of Table 1.
Per Gd relaxivities were determined by measuring T1 at 37° C. using 20, 60, 200, 400 and 500 MHz spectrometers. Relaxivities for MS-325 (with and without the presence of HSA) as a reference compound with a long τR and [Gd(HP-DO3A)(H2O)] as a reference for very short τR were also measured, and all the relaxivity data is tabulated in Table 4, together with results obtained from literature for the compounds with similar estimated τR. […] Additional rigidity through cyclization seems to provide only minor relaxivity increase for the dimeric and trimeric systems (Gd2C2 and Gd3C3).
as §1

Chain of HSA (P02768 25-609): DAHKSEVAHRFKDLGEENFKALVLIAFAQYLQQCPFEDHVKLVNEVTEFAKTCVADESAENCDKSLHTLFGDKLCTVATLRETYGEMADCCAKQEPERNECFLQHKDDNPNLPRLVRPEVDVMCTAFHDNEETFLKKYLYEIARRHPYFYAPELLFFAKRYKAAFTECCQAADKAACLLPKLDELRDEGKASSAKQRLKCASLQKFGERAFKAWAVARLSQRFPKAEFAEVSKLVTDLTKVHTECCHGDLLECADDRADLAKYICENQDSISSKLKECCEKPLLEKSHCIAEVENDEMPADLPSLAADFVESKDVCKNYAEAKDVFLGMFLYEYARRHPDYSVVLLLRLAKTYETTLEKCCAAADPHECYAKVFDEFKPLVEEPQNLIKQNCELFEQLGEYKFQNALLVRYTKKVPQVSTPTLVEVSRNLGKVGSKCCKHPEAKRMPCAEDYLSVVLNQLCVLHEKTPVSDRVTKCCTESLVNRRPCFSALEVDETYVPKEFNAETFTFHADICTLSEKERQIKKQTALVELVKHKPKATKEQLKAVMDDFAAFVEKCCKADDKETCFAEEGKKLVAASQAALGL

Molecule: 2,2′-(4-(2-carboxy-2-(2-(4-isobutylphenyl)propanamido)ethyl)-10-(phosphonomethyl)-1,4,7,10-tetraazacyclododecane-1,7-diyl)diacetic acid [Gd(5a)]
^310 TM (ns) [2]: 6.36 ± 0.09 ns
^310kex × 10^6 (s^−1) [2]: 158 ± 3 × 10^6 s^−1
ΔH^‡ [2]: 5.492 ± 0.421 kcal/mol
r1 (20 MHz, 37° C., mM^−1s^−1) [3]: 5.4 mM⁻¹ s⁻¹
r1 (60 MHz, 37° C., mM^−1s^−1) [3]: 4.1 mM⁻¹ s⁻¹

Molecule: 2,2′-(4-(2-carboxy-2-((1-(4-isobutylphenyl)ethyl)amino)ethyl)-10-(phosphonomethyl)-1,4,7,10-tetraazacyclododecane-1,7-diyl)diacetic acid [Gd(4b)]
r1 (20 MHz, 37° C., mM^−1s^−1) [3]: 4 mM⁻¹ s⁻¹
r1 (60 MHz, 37° C., mM^−1s^−1) [3]: 3.8 mM⁻¹ s⁻¹

Molecule: CC1(N(CC(=O)O)CC(=O)O)CN(CC(=O)O)CCN(CC(=O)O)C1 [AAZTA]
Kcomp [Gd(DTPA)(H2O)]^2- vs. L pH 4 [4]: 0.091^9
Kcomp, [Gd(DTPA)(H2O)]^2- vs. L pH 7.4 [4]: .001^9

Molecule: O=C(O)CN1CCN(CC(=O)O)Cc2cccc(n2)CN(CC(=O)O)CC1 [PCTA]
Kcomp [Gd(DTPA)(H2O)]^2- vs. L pH 4 [4]: 0.064^10
Kcomp, [Gd(DTPA)(H2O)]^2- vs. L pH 7.4 [4]: 0.019^10

Molecule: H2N—C(SH)PG-DOTAla(Gd)-G-DOTAla(Gd)-GC(SH)CONH2 [Gd2C2-red]
relaxivity r1, cyclic versus linearized (reduced) multimer [5]: 9 mM⁻¹ s⁻¹
relaxivity after disulfide bond reduction [5]: 9 mM⁻¹ s⁻¹

Now from value to molecule, other results behind:

% HSA binding (HSA): 90%
r1 (20 MHz), absence of HSA ([1]; 20 MHz, absence of HSA (first value of cell)): 7.1 mM⁻¹ s⁻¹
r1 (20 MHz), presence of HSA ([1]; 20 MHz, presence of HSA (second value of cell)): 31.8 mM⁻¹ s⁻¹
r1 (60 MHz), absence of HSA ([1]; 60 MHz, absence of HSA (first value of cell)): 6.7 mM⁻¹ s⁻¹
r1 (60 MHz), presence of HSA ([1]; 60 MHz, presence of HSA (second value of cell)): 21.1 mM⁻¹ s⁻¹
Molecule: 2,2′,2″-(10-(3-(((1-Carboxy-2-(4-hydroxy-3,5-diiodophenyl)ethyl)-amino)-2-(2-(4-isobutylphenyl)propanamido)-3-oxopropyl)-1,4,7,10-tetraazacyclododecane-1,4,7-triyl)triacetic Acid [Gd (8)]

ΔH^‡ [2]: 3.23 ± 0.268 kcal/mol
r1 (20 MHz, 37° C., mM^−1s^−1) [3]: 6.4 mM⁻¹ s⁻¹
r1 (60 MHz, 37° C., mM^−1s^−1) [3]: 6.1 mM⁻¹ s⁻¹
Molecule: NC(CN1CCN(CC(=O)O)CCN(CP(=O)(O)O)CCN(CC(=O)O)CC1)C(=O)O (stereo not shown) [Gd(3), 2,2′-(4-(2-amino-2-carboxyethyl)-10-(phosphonomethyl)-1,4,7,10-tetra-azacyclododecane-1,7-diyl)diacetic acid]
^310 TM (ns) [2]: 8.1 ± 0.25 ns
^310kex × 10^6 (s^−1) [2]: 125 ± 4 × 10^6 s^−1

r1 (20 MHz, 37° C., mM^−1s^−1) [3]: 3.2 mM⁻¹ s⁻¹
r1 (60 MHz, 37° C., mM^−1s^−1) [3]: 3.0 mM⁻¹ s⁻¹
Molecule: CC(C)Cc1ccc(C(C)C(=O)NCCNC(=O)C(N)CN2CCN(CC(=O)O)CCN(CP(=O)(O)O)CCN(CC(=O)O)CC2)cc1 (stereo not shown) [Gd(5b), 2, 2′-(4-(2-amino-3-((2-(2-(4-isobutylphenyl)propanamido)ethyl)amino)-3-oxopropyl)-10-(phosphonomethyl)-1,4,7,10-tetraazacyclododecane-1,7-diyl)diacetic acid]

relaxivity after disulfide bond reduction [5]: 11.5 mM⁻¹ s⁻¹
Molecule: H2N—C(SH)PG-DOTAla(Gd)-G-DOTAla(Gd)-G-DOTAla(Gd)-GC(SH)CONH2 [Gd3C3-red]

Relaxivity per Gd, TCEP reduced [5]: 11.5 mM⁻¹ s⁻¹
Relaxivity per Gd, cyclic [5]: 12.3 mM⁻¹ s⁻¹
Relaxivity per Gd, 20 MHz [6]: 12.7 mM⁻¹ s⁻¹
Relaxivity per Gd, 60 MHz [6]: 12.3 mM⁻¹ s⁻¹
Relaxivity per Gd, 200 MHz [6]: 9.2 mM⁻¹ s⁻¹
Relaxivity per Gd, 400 MHz [6]: 6.6 mM⁻¹ s⁻¹
Relaxivity per Gd, 500 MHz [6]: 5.5 mM⁻¹ s⁻¹
r1 [0.47 T], per Gd [6]: 13.38 mM⁻¹ s⁻¹
r1 [1.4 T], per Gd [6]: 12.86 mM⁻¹ s⁻¹
r1 [0.47 T], per molecule [6]: 40.14 mM⁻¹ s⁻¹
r1 [1.4 T], per molecule [6]: 38.58 mM⁻¹ s⁻¹
Molecule: H2N—C(S^cycl)PG-DOTAla(Gd)-G-DOTAla(Gd)-G-DOTAla(Gd)-GC(S^cycl)CONH2 [Gd3C3]

relaxivity r1, cyclic versus linearized (reduced) multimer [5]: 10.5 mM⁻¹ s⁻¹
Relaxivity per Gd, TCEP reduced [5]: 9 mM⁻¹ s⁻¹
Relaxivity per Gd, cyclic [5]: 10.5 mM⁻¹ s⁻¹
Relaxivity per Gd, 20 MHz [6]: 11.4 mM⁻¹ s⁻¹
Relaxivity per Gd, 60 MHz [6]: 10.6 mM⁻¹ s⁻¹
Relaxivity per Gd, 200 MHz [6]: 7.5 mM⁻¹ s⁻¹
Relaxivity per Gd, 400 MHz [6]: 5.7 mM⁻¹ s⁻¹
Relaxivity per Gd, 500 MHz [6]: 4.5 mM⁻¹ s⁻¹
r1 [0.47 T], per Gd [6]: 13.1 mM⁻¹ s⁻¹
r1 [1.4 T], per Gd [6]: 12.2 mM⁻¹ s⁻¹
r1 [0.47 T], per molecule [6]: 26.2 mM⁻¹ s⁻¹
r1 [1.4 T], per molecule [6]: 24.4 mM⁻¹ s⁻¹
Molecule: H2N—C(S^cycl)PG-DOTAla(Gd)-G-DOTAla(Gd)-GC(S^cycl)CON H2 [Gd2C2]

Relaxivity per Gd, TCEP reduced [5]: 6.4 mM⁻¹ s⁻¹
Relaxivity per Gd, cyclic [5]: 7.1 mM⁻¹ s⁻¹
Relaxivity per Gd, 20 MHz [6]: 8.3 mM⁻¹ s⁻¹
Relaxivity per Gd, 60 MHz [6]: 7.1 mM⁻¹ s⁻¹
Relaxivity per Gd, 200 MHz [6]: 7.3 mM⁻¹ s⁻¹
Relaxivity per Gd, 400 MHz [6]: 5.1 mM⁻¹ s⁻¹
Relaxivity per Gd, 500 MHz [6]: 4.5 mM⁻¹ s⁻¹
r1 [0.47 T], per Gd [6]: 8.3 mM⁻¹ s⁻¹
r1 [1.4 T], per Gd [6]: 6.7 mM⁻¹ s⁻¹
Molecule: H2N—C(S^cycl)PG-DOTAla(Gd)-GC(S^cycl)CONH2 [GdC1]
